# According to ChEMBL document CHEMBL5550215, “Discovery of Novel Imidazo[1,2-a]pyridine-Based HDAC6 Inhibitors as an Anticarcinogen with a Cardioprotective Effect” (J Med Chem, 2024):
# The source made the active and inactive calls. No cut-off for these calls is given here.
# Tests used:
# H9c2 [1] = assay: Protection against H2O2 induced myocardial cell injury in rat H9c2 cells at 10 uM pretreated for 24 hrs followed by H2O2 exposure and measured after 1.5 hrs (reference value: 17.91 to 57.32%); type: functional; conditions: time 25.5 hrs
# TE-1 = assay: Antiproliferative activity against human TE-1 cells assessed as inhibition of cell growth by MTT assay
# Mus musculus [2] = assay: Cardioprotective activity against myocardial ischemia/reperfusion induced C57BL/6J mouse model assessed as reduction in ST-segment elevation at 10 mg/kg; type: functional, organism-based
# Mus musculus [3] = assay: Cardioprotective activity against myocardial ischemia/reperfusion induced C57BL/6J mouse model assessed as effect on infarct size of mouse heart at 10 mg/kg by TTC staining based analysis; type: functional, organism-based
# H9c2 [4] = assay: Protection against H2O2 induced myocardial cell injury in rat H9c2 cells assessed as fold change at 10 uM pretreated for 24 hrs followed by H2O2 exposure and measured after 1.5 hrs relative to H2O2 alone; type: functional; conditions: time 25.5 hrs
# H9c2 [5] = assay: Protection against H2O2 induced myocardial cell injury in rat H9c2 cells at 5 uM pretreated for 24 hrs followed by H2O2 exposure and measured after 1.5 hrs (reference value: 41.79+/-1.59%); type: functional; conditions: time 25.5 hrs
# H9c2 [6] = assay: Protection against H2O2 induced myocardial cell injury in rat H9c2 cells assessed as fold change at 5 uM pretreated for 24 hrs followed by H2O2 exposure and measured after 1.5 hrs relative to H2O2 alone; type: functional; conditions: time 25.5 hrs
# [7] = molecular target: T1, Protein deacetylase HDAC6 (Homo sapiens) (UniProt Q9UBN7); conditions: dose 100.0 nM
# T1 sequence (whole entry): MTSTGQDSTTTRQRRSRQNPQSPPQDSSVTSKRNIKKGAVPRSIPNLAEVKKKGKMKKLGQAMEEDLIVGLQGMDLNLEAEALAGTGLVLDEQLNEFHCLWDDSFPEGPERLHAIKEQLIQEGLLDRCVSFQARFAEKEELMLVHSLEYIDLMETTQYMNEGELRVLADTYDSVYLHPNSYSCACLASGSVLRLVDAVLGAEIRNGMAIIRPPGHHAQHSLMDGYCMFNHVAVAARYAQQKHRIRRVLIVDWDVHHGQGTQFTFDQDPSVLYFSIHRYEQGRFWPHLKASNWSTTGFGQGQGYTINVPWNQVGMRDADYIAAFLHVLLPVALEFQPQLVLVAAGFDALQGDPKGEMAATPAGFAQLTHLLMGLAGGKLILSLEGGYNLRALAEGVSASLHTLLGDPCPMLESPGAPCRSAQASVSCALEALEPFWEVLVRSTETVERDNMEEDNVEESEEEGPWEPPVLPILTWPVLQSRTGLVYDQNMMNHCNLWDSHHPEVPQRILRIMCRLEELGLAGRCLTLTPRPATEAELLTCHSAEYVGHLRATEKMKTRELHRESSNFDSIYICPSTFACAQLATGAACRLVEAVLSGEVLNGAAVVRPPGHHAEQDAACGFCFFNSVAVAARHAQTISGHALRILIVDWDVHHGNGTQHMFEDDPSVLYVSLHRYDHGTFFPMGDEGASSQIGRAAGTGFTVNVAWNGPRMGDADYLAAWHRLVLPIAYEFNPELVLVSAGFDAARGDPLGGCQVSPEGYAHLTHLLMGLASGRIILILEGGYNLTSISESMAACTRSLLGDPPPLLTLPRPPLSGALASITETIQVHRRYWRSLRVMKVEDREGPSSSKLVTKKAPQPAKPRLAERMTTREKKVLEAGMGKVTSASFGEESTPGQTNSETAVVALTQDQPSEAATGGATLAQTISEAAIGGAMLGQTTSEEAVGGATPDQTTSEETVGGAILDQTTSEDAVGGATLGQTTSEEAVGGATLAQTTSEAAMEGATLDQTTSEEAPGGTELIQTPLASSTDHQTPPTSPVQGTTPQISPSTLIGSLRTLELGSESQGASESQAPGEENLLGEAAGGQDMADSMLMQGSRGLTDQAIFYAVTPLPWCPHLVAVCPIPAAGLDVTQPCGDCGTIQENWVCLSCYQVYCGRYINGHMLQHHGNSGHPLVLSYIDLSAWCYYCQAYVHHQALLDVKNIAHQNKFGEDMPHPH
# Description: Inhibition of HDAC6 (unknown origin) at 100 nM relative to control
# MGC-803 = assay: Antiproliferative activity against human MGC-803 cells assessed as inhibition of cell growth by MTT assay
# HCT-116 = assay: Antiproliferative activity against human HCT-116 cells assessed as inhibition of cell growth by MTT assay
# PANC-1 = assay: Antiproliferative activity against human PANC-1 cells assessed as inhibition of cell growth by MTT assay
# SMMC-7721 = assay: Antiproliferative activity against human SMMC-7721 cells assessed as inhibition of cell growth by MTT assay
# NCI-H460 = assay: Antiproliferative activity against human NCI-H460 cells assessed as inhibition of cell growth by MTT assay
# PC-3 = assay: Antiproliferative activity against human PC-3 cells assessed as inhibition of cell growth by MTT assay
SMILES,Activity (H9c2 [1]) [%],IC50 (TE-1) [µM],Activity (Mus musculus [2]),Activity (Mus musculus [3]),fold change (FC) (H9c2 [4]),Activity (H9c2 [5]) [%],fold change (FC) (H9c2 [6]),inhibition [7] [%],IC50 (MGC-803) [µM],IC50 (HCT-116) [µM],IC50 (PANC-1) [µM],IC50 (SMMC-7721) [µM],IC50 (NCI-H460) [µM],IC50 (PC-3) [µM]
O=C(CCCCCCC(=O)Nc1ccccc1)NO [VORINOSTAT],71.54,2.25,Active,inactive,,,,,,,,,,
O=c1cc(-c2ccc(O)c(O)c2)oc2cc(O)cc(O)c12 [LUTEOLIN],91.43,,,,2.53,86.37,2.07,1,,,,,,
Cc1ccc(-c2cc(C(=O)NCc3ccc(C(=O)NO)cc3)c3nccn3c2)cc1,84.83,5.54,,,,83.58,,,1.17,> 10,6.15,1.85,> 10,> 10
O=C(NO)c1ccc(NCc2cc(-c3cccc(Br)c3)cn3ccnc23)cc1,98.49,6.23,,,,,,,5.07,> 10,> 10,3.18,9.44,> 10
